Data on one substance can be found in patent publication US4879114A, “Lipids from omentum and methods for cosmetic use” (Angio-Medical Corporation, priority 1985, dated 1989).

In the data set the test system is skin (back) of subjects. To be noted: in vivo.

Take petrolatum: the “challenge patch reading: dermal contact irritation or sensitization” value is “negative at each reading without any evidence of dermal contact irritation or sensitization” and the “induction phase patch reading” value was “negative at each reading”.
